According to the NIST ThermoML archive (doi:10.1021/je700260f):
± gives the expanded uncertainty stated by the source.

Conditions: 323.14 K, Liquid, Vibrating tube method

FC(C(F)(F)F)C(F)(F)F [1,1,1,2,3,3,3-heptafluoropropane]
Conditions	mass density [kg/m3]
4100 kPa	1311 ± 1.5
4120 kPa	1311.1 ± 1.5
4140 kPa	1311.5 ± 1.5
4170 kPa	1311.8 ± 1.5
4190 kPa	1312 ± 1.5
4220 kPa	1312.3 ± 1.5
4240 kPa	1312.4 ± 1.5
4270 kPa	1312.8 ± 1.5
4290 kPa	1313.1 ± 1.5
4310 kPa	1313.2 ± 1.5
4330 kPa	1313.5 ± 1.5
4360 kPa	1313.8 ± 1.5
4380 kPa	1313.9 ± 1.5
4400 kPa	1314.2 ± 1.5
4420 kPa	1314.6 ± 1.5
4440 kPa	1314.6 ± 1.5
4470 kPa	1314.9 ± 1.5
4500 kPa	1315.2 ± 1.5
4510 kPa	1315.3 ± 1.5
4540 kPa	1315.5 ± 1.5
4560 kPa	1315.8 ± 1.5
4590 kPa	1316 ± 1.5
4610 kPa	1316.2 ± 1.5
4640 kPa	1316.6 ± 1.5
4660 kPa	1316.8 ± 1.5
4690 kPa	1317.1 ± 1.5
4710 kPa	1317.3 ± 1.5
4740 kPa	1317.6 ± 1.5
4960 kPa	1319.7 ± 1.5
4980 kPa	1320.1 ± 1.5
5020 kPa	1320.3 ± 1.5
5040 kPa	1320.6 ± 1.5
5070 kPa	1320.9 ± 1.5
5100 kPa	1321.1 ± 1.5
5130 kPa	1321.4 ± 1.5
5150 kPa	1321.7 ± 1.5
5180 kPa	1321.7 ± 1.5
5200 kPa	1322 ± 1.5
5220 kPa	1322.3 ± 1.5
5250 kPa	1322.6 ± 1.5
5280 kPa	1322.9 ± 1.5
5310 kPa	1323.2 ± 1.5
5330 kPa	1323.3 ± 1.5
5360 kPa	1323.7 ± 1.5
5390 kPa	1323.9 ± 1.5
5420 kPa	1324.1 ± 1.5
5440 kPa	1324.3 ± 1.5
5470 kPa	1324.7 ± 1.5
5490 kPa	1324.9 ± 1.5
5520 kPa	1325.2 ± 1.5
5540 kPa	1325.4 ± 1.5
5570 kPa	1325.7 ± 1.5
5600 kPa	1325.9 ± 1.5
5630 kPa	1326.2 ± 1.5
5650 kPa	1326.4 ± 1.5
5670 kPa	1326.6 ± 1.5
5960 kPa	1329.4 ± 1.5
5990 kPa	1329.5 ± 1.5
6010 kPa	1329.7 ± 1.5
6030 kPa	1330 ± 1.5
6050 kPa	1330 ± 1.5
6080 kPa	1330.3 ± 1.5
6100 kPa	1330.6 ± 1.5
6120 kPa	1330.7 ± 1.5
6140 kPa	1330.8 ± 1.5
6160 kPa	1331.1 ± 1.5
6180 kPa	1331.2 ± 1.5
6200 kPa	1331.4 ± 1.5
6230 kPa	1331.8 ± 1.5
6240 kPa	1331.8 ± 1.5
6270 kPa	1332 ± 1.5
6290 kPa	1332.4 ± 1.5
6310 kPa	1332.4 ± 1.5
6330 kPa	1332.6 ± 1.5
6350 kPa	1333 ± 1.5
6380 kPa	1333.1 ± 1.5
6390 kPa	1333.3 ± 1.5
6410 kPa	1333.5 ± 1.5
6463 kPa	1333.8 ± 1.5
6556 kPa	1334.6 ± 1.5
6581 kPa	1334.8 ± 1.5
6778 kPa	1336.5 ± 1.5
6803 kPa	1336.7 ± 1.5
6825 kPa	1337 ± 1.5
6840 kPa	1337.1 ± 1.5
6865 kPa	1337.3 ± 1.5
6881 kPa	1337.4 ± 1.5
6903 kPa	1337.7 ± 1.5
6923 kPa	1337.8 ± 1.5
6947 kPa	1338.1 ± 1.5
6974 kPa	1338.2 ± 1.5
7006 kPa	1338.7 ± 1.5
7056 kPa	1338.9 ± 1.5
7083 kPa	1339.2 ± 1.5
7103 kPa	1339.4 ± 1.5
7124 kPa	1339.5 ± 1.5
7147 kPa	1339.7 ± 1.5
7168 kPa	1339.9 ± 1.5
7194 kPa	1340.2 ± 1.5
7215 kPa	1340.4 ± 1.5
7245 kPa	1340.6 ± 1.5
7268 kPa	1340.7 ± 1.5
7292 kPa	1341 ± 1.5
7328 kPa	1341.3 ± 1.5
7350 kPa	1341.5 ± 1.5
7375 kPa	1341.7 ± 1.5
7395 kPa	1341.7 ± 1.5
7423 kPa	1342.1 ± 1.5
7444 kPa	1342.2 ± 1.5
7468 kPa	1342.4 ± 1.5
7492 kPa	1342.6 ± 1.5
7516 kPa	1342.8 ± 1.5
7540 kPa	1343.1 ± 1.5
7566 kPa	1343.2 ± 1.5
7592 kPa	1343.5 ± 1.5
7619 kPa	1343.7 ± 1.5
7640 kPa	1344 ± 1.5
7661 kPa	1344.2 ± 1.5
7683 kPa	1344.2 ± 1.5
7702 kPa	1344.3 ± 1.5
7719 kPa	1344.5 ± 1.5
7741 kPa	1344.7 ± 1.5
7761 kPa	1344.8 ± 1.5
7781 kPa	1345 ± 1.5
7801 kPa	1345.1 ± 1.5
7818 kPa	1345.3 ± 1.5
7837 kPa	1345.4 ± 1.5
7859 kPa	1345.7 ± 1.5
7878 kPa	1345.9 ± 1.5
7903 kPa	1346 ± 1.5
7924 kPa	1346 ± 1.5
7964 kPa	1346.4 ± 1.5
8025 kPa	1347 ± 1.5
8049 kPa	1347.2 ± 1.5
8068 kPa	1347.2 ± 1.5
8087 kPa	1347.4 ± 1.5
8101 kPa	1347.6 ± 1.5
8118 kPa	1347.7 ± 1.5
8142 kPa	1347.8 ± 1.5
8162 kPa	1348.1 ± 1.5
8181 kPa	1348.2 ± 1.5
8197 kPa	1348.3 ± 1.5
8219 kPa	1348.6 ± 1.5
8234 kPa	1348.6 ± 1.5
8250 kPa	1348.9 ± 1.5
8266 kPa	1348.7 ± 1.5
8284 kPa	1349 ± 1.5
8300 kPa	1349.3 ± 1.5
8316 kPa	1349.2 ± 1.5
8385 kPa	1349.8 ± 1.5
8410 kPa	1350.2 ± 1.5
8432 kPa	1350.1 ± 1.5
8450 kPa	1350.4 ± 1.5
8914 kPa	1353.9 ± 1.5
8936 kPa	1354.2 ± 1.5
8952 kPa	1354.1 ± 1.5
8977 kPa	1354.5 ± 1.5
8991 kPa	1354.6 ± 1.5
9010 kPa	1354.7 ± 1.5
9030 kPa	1354.9 ± 1.5
9051 kPa	1354.9 ± 1.5
9072 kPa	1355.2 ± 1.5
9092 kPa	1355.3 ± 1.5
9115 kPa	1355.4 ± 1.5
9133 kPa	1355.7 ± 1.5
9154 kPa	1355.8 ± 1.5
9171 kPa	1355.9 ± 1.5
9191 kPa	1356.1 ± 1.5
9214 kPa	1356.3 ± 1.5
9238 kPa	1356.3 ± 1.5
9264 kPa	1356.7 ± 1.5
9290 kPa	1356.9 ± 1.5
9305 kPa	1357 ± 1.5
9326 kPa	1357.1 ± 1.5
9347 kPa	1357.2 ± 1.5
9371 kPa	1357.4 ± 1.5
9389 kPa	1357.5 ± 1.5
9411 kPa	1357.8 ± 1.5
9432 kPa	1357.9 ± 1.5
9459 kPa	1358.1 ± 1.5
9483 kPa	1358.2 ± 1.5
9503 kPa	1358.4 ± 1.5
9521 kPa	1358.4 ± 1.5
9543 kPa	1358.6 ± 1.5
9559 kPa	1358.9 ± 1.5
9574 kPa	1358.9 ± 1.5
9596 kPa	1359 ± 1.5
9618 kPa	1359.2 ± 1.5
9639 kPa	1359.5 ± 1.5
9657 kPa	1359.5 ± 1.5
9681 kPa	1359.8 ± 1.5
9700 kPa	1359.9 ± 1.5
9913 kPa	1361.5 ± 1.5
9929 kPa	1361.6 ± 1.5
9948 kPa	1361.8 ± 1.5
9976 kPa	1361.9 ± 1.5
9997 kPa	1362.1 ± 1.5
10019 kPa	1362.3 ± 1.5
10043 kPa	1362.2 ± 1.5
10066 kPa	1362.5 ± 1.5
10083 kPa	1362.6 ± 1.5
10105 kPa	1362.8 ± 1.5
10130 kPa	1363 ± 1.5
10153 kPa	1363.3 ± 1.5
10170 kPa	1363.3 ± 1.5
